Data taken from patent US8574569B2, “Stabilized protease composition” (Trobio AB, priority 2005, dated 2013).
Where two headings read alike, the source gives them in different places. One block for each compound: values may come before it.

Legend:
human thrombin [1] = molecular target: T1, human thrombin (Homo sapiens, UniProt P00734); experiment: Stability of human thrombin solutions (fibrinogen clotting activity decay curves, T 70%); format: physicochemical; parameters: The thrombin used in the study is human thrombin derived from plasma; purchased Biovitrum AB, Sweden; host or cells: human plasma
Method: This value, denoted “T 70%”, is chosen since it corresponds to what could be accepted as a maximum permitted loss in activity during a life span of a commercial product.
In the experimental studies, a high temperature (37° C.) has been used, as well as a high concentration of enzyme. This has been made in order to obtain stability data in reasonably short times, and not have to wait for months or years.
(§1) The clotting times were measured using an Amelungen Kc 1 coagulometer (Amelungen, Germany). […] From the values obtained, activity decay curves could be constructed.

trypsin = molecular target: T2, trypsin (Bos taurus, UniProt P00760); experiment: Stability of trypsin solutions (TAME substrate, T 70%); format: physicochemical; settings: for T 70%: 100 μg/ml trypsin in 10 mM HEPES, 0.13 M NaCl, pH 7.4, 37° C.; for increase in stabilization of trypsin, factor: T 70% relative to trypsin without additives, 37° C.
T2 construct: 100 μg/ml of trypsin (TPCK-treated, Sigma-Aldrich); purchased Sigma-Aldrich
T2 sequence (P00760 24-246): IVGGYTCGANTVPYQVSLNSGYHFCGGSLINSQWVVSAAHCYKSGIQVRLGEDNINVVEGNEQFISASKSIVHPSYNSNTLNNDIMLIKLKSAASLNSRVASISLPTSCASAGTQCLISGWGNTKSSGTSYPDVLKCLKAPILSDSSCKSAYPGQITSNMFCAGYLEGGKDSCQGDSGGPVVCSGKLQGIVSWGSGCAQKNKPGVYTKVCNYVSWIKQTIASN
Method: The stabilization of solutions of trypsin in accordance with the invention was tested. The activity of trypsin was determined using tosyl arginine methyl ester (TAME) as substrate and measuring the absorbance change at 247 nm in a spectrophotometer. Solutions containing 100 μg/ml of trypsin (TPCK-treated, Sigma-Aldrich) in 10 mM HEPES and 0.13 M NaCl, pH 7.4, as well as stabilizers as indicated in Table 3 below were incubated at 37° C., and samples were taken out at various time intervals for activity determination.

plasmin = molecular target: T3, plasmin (Homo sapiens, UniProt P00747); experiment: Stability of plasmin solutions (Chromozym TH chromogenic substrate, T 70%); format: physicochemical; settings: for T 70%: 100 μg/ml plasmin in 10 mM HEPES, 0.13 M NaCl, pH 7.4, 37° C.; for increase in stability of plasmin composition, factor: T 70% relative to plasmin without additives, 37° C.
T3 construct: 100 μg/ml of plasmin (specific activity 3.2 units/mg, Sigma-Aldrich); purchased Sigma-Aldrich
T3 sequence (P00747 581-810 limits assumed, species assumed): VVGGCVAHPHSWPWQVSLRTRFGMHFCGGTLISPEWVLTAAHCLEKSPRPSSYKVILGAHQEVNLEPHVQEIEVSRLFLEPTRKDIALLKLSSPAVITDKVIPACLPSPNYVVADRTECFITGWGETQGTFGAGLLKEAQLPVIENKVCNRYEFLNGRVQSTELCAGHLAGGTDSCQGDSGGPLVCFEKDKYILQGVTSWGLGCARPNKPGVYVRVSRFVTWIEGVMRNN
T3 sequence (P00747 97-580 partner limits assumed, species assumed): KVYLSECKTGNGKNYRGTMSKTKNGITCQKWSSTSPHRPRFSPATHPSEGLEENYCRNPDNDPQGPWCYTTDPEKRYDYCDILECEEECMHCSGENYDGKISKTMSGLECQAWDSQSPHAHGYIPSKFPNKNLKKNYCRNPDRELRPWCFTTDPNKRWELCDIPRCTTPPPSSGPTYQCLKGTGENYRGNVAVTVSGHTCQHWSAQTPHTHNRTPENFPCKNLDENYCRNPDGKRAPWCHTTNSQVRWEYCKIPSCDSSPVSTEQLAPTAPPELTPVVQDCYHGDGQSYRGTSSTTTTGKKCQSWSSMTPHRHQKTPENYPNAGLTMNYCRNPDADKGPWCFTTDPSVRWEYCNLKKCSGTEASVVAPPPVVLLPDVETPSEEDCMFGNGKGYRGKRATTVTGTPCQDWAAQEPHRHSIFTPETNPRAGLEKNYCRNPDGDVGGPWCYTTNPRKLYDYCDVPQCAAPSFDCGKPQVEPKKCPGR
Method: The stabilization of solutions of plasmin in accordance with the invention was tested. The activity of plasmin was determined using chromogenic peptide substrate Chromozym TH (Pentapharm, Switzerland) and measurement of absorbance change at 405 nm in a spectrophotometer. Solutions containing 100 μg/ml of plasmin (specific activity 3.2 units/mg, Sigma-Aldrich) in 10 mM HEPES and 0.13 M NaCl, pH 7.4, as well as stabilizers as indicated in Table 2 below were incubated at 37° C., and samples were taken out at various time intervals for activity determination.

bovine thrombin = molecular target: T4, bovine thrombin (Bos taurus, UniProt P00735); experiment: Stability of bovine thrombin solutions (T 70%); format: physicochemical; settings: 0.4 mg/ml bovine thrombin (Baxter) in HEPES buffer, 37° C.
T4 construct: purchased Baxter
Method: as §1

human thrombin [2] = molecular target: T1, human thrombin; settings: for Apparent inhibition (%) / Apparent thrombin concentration (U/ml): 89 units/ml human thrombin, 0.01 M HEPES, 0.13 M NaCl, pH 7.4
Method: The clotting tests in this experimental setup were performed in 0.01 M HEPES, 0.13 M NaCl buffer of pH 7.4, which is according to standard procedure (EU Pharmacopeia). […] Solutions of various concentrations of morpholine were prepared in the HEPES buffer by adding a concentrated morpholine solution adjusted to pH 7.4.

human thrombin [3] = molecular target: T1, human thrombin; experiment: Stability of human thrombin solutions (fibrinogen clotting activity decay curves, T 70%); format: physicochemical; parameters: The thrombin used in the study is human thrombin derived from plasma; purchased Biovitrum AB, Sweden; host or cells: human plasma; settings: 1 mg/ml thrombin in 10 mM HEPES, 0.13 M NaCl, pH 7.4
[4] = T 70% relative to 1 mg/ml thrombin without additives, 37° C.
[5] = time to reach 70% of initial activity, 1 mg/ml thrombin in 10 mM HEPES, 0.13 M NaCl, pH 7.4, 37° C.

Compound: O=S(=O)(O)CCCN1CCOCC1 [MOPS, 3-(N-morpholino)propanesulfonic acid]
increase in stabilization, factor (human thrombin [1]; [4]): 4.7 | T 70% (human thrombin [1]; pH 7.4): 7.5 days

T 70% (trypsin): 43 h | increase in stabilization of trypsin, factor (trypsin): 72 | T 70% (plasmin): 16 h
Compound: N=C(N)c1ccccc1 [benzamidine, reference compound]

T 70% (human thrombin [1]; [5]): 4.1 days
Compound: O=C(O)CCCN1CCOCC1 [morpholino propyl carboxylic acid]

Compound: bovine thrombin: bovine thrombin (Baxter), solution in HEPES buffer without additives
T 70% (bovine thrombin): 1.3 days

increase in stabilization, factor (human thrombin [1]; [4]): 22 | T 70% (human thrombin [1]; time to reach 70% of initial activity, 1 mg/ml thrombin in 10 mM HEPES, 0.13 M NaCl, pH 7.4, 37° C., listed as 1.9 mM N-(2′-phenoxy)-4-aminopyridin): 35 days | T 70% (human thrombin [1]; time to reach 70% of initial activity, 1 mg/ml thrombin in 10 mM HEPES, 0.13 M NaCl, pH 7.4, 37° C., listed as 3.1 mM N-(2′-phenoxy)-4-aminopyridin): 74 days
Compound: N-(2′-phenoxy)-4-aminopyridin

T 70% (human thrombin [1]; [5]): 3.8 days
Compound: OCCN1CCOCC1 [morpholino ethyl alcohol]

Compound: [Cl-].[Na+] [NaCl, reference compound]
Apparent inhibition (%) (human thrombin [2]; 0.05 M added): 17% | Apparent thrombin concentration (U/ml) (human thrombin [2]; 0.05 M added): 74 U/ml | Apparent inhibition (%) (human thrombin [2]; 0.10 M added): 40% | Apparent thrombin concentration (U/ml) (human thrombin [2]; 0.10 M added): 53 U/ml | Apparent inhibition (%) (human thrombin [2]; 0.15 M added): 34% | Apparent thrombin concentration (U/ml) (human thrombin [2]; 0.15 M added): 58 U/ml | Apparent inhibition (%) (human thrombin [2]; 0.20 M added): 37% | Apparent thrombin concentration (U/ml) (human thrombin [2]; 0.20 M added): 55 U/ml

Compound: thrombin
T 70% (human thrombin [3]; refrigerator storage (around 5° C.)): 36 days | T 70% (human thrombin [3]; room temperature (around 21° C.)): 5.4 days | T 70% (human thrombin [1]; 15.0 activity units/ml human thrombin in HEPES buffer, pH 7.4): 23 days

T 70% (plasmin): 8 h | increase in stability of plasmin composition, factor (plasmin): 2.7 | T 70% (human thrombin [1]; [5]): 10 days
Compound: CCN(CC)CCN [N,N-diethylethylenediamine]

T 70% (human thrombin [1]; [5]): 4.0 days
Compound: O=S(=O)(O)CCCCN1CCOCC1 [morpholino butyl sulphonic acid]

Compound: aminobenzamidine [reference compound]
T 70% (plasmin): 52 h | increase in stability of plasmin composition, factor (plasmin): 17 | increase in stabilization, factor (human thrombin [1]): 12.5 | T 70% (human thrombin [1]; pH 7.4): 20 days

T 70% (human thrombin [1]; [5]): 3.2 days
Compound: O=S(=O)(O)CCN1CCOCC1 [morpholino ethyl sulphonic acid]

T 70% (trypsin): 8 h | increase in stabilization of trypsin, factor (trypsin): 13 | T 70% (plasmin): 12 h | increase in stability of plasmin composition, factor (plasmin): 4 | Apparent inhibition (%) (human thrombin [2]; 0.05 M added): 4% | Apparent thrombin concentration (U/ml) (human thrombin [2]; 0.05 M added): 87 U/ml | Apparent inhibition (%) (human thrombin [2]; 0.10 M added): 20% | Apparent thrombin concentration (U/ml) (human thrombin [2]; 0.10 M added): 71 U/ml | Apparent inhibition (%) (human thrombin [2]; 0.15 M added): 45% | Apparent thrombin concentration (U/ml) (human thrombin [2]; 0.15 M added): 49 U/ml | Apparent inhibition (%) (human thrombin [2]; 0.20 M added): 43% | Apparent thrombin concentration (U/ml) (human thrombin [2]; 0.20 M added): 51 U/ml | inhibitor of thrombin (conclusion) (human thrombin [2]; clotting time prolongation ascribed to ionic strength): not an inhibitor of thrombin | T 70% (human thrombin [1]; [5]): 8.5 days
Compound: C1COCCN1 [morpholine]
